Laboratory results as given in US10301280B2 (Plexxikon Inc., priority 2012, dated 2019).

How the values were obtained:
c-kit mutant D816V = c-kit mutant D816V (Homo sapiens (Human), UniProt P10721, D816V/DEL694-753); test: c-Kit mutant D816V biochemical assay (AlphaScreen); settings: c-kit D816V biochemical inhibitory activity
Method: The c-kit mutant D816V (or kinase domain thereof) is an active kinase in AlphaScreen. IC50 values are determined with respect to inhibition of c-Kit mutant D816V kinase activity, where inhibition of phosphorylation of a peptide substrate is measured as a function of compound concentration. Compounds to be tested were dissolved in DMSO to a concentration of 20 mM. These were diluted 30 μl into 120 μl of DMSO (4 mM) and 1 μl was added to an assay plate. These were then serially diluted 1:3 (50 μl to 100 μl DMSO) for a total of 8 points. Plates were prepared such that each kinase reaction is 20 μl in 1× kinase buffer (25 mM HEPES, pH 7.2, 8 mM MgCl2, 2 mM MnCl2, 50 mM NaCl, 0.01% Brij, 1 mM DTT, 0.01% BSA), 5% DMSO and 10 μM ATP. Substrate was 30 nM biotin-(E4Y)10 (EMD Millipore, Cat#12-440). C-kit mutant D816V kinase was at 0.75 ng per sample. After incubation of the kinase reaction for 30 minutes at room temperature, 5 μl of donor beads (Streptavidin coated beads (Perkin Elmer Life Science) final concentration 7.5 μg/ml) in stop buffer (25 mM Hepes pH 7.5, 100 mM EDTA, 0.01% BSA) was added, the sample was mixed and incubated for 20 minutes at room temperature before adding 5 μl of acceptor beads (PY20 coated beads (Perkin Elmer Life Science) final concentration 7.5 ug/ml) in stop buffer. The samples were incubated for 60 minutes at room temperature and the signal per well was read on EnVision reader. Phosphorylated substrate results in binding of the PY20 antibody and association of the donor and acceptor beads such that signal correlates with kinase activity. The signal vs. compound concentration was used to determine the IC50.
Recombinant c-kit mutant D816V (residues 551-934, kinase insertion domain residues 694-753 deleted) with a 6x-histidine N-terminal tag was expressed in E. coli Arctic Express (DE3) RIL (Stratagene). Cells were grown in Terrific Broth (TB) media to an OD600 of 0.6 at 37° C. at which temperature was reduced to 10° C., protein was induced with 1.0 mM IPTG for 18 hours and harvested by centrifugation at 8000×g for 20 minutes. Cells were re-suspended in 0.1M KPO4 pH 8.0, 250 mM NaCl, 10% Glycerol, 0.75% NP-40, 25 mM Imidazole, 5 mM BME with 0.2 mg/ml Lysosyme, 2.0 mM PMSF, 25 μg/ml DNAse I, incubated in ice for 30 minutes and lyzed with a cell disruptor (MicroFluidics). The lysate was clarified by centrifugation at 20,000×g for 2 hours. The protein was captured with Talon resin (Clontech). Contaminating proteins were washed off with 25 mM Tris-HCl pH 8.3, 250 mM NaCl, 15% Glycerol, 1% Triton X-100, and protein eluted using 100 mM EDTA. The protein was further purified using Gel Filtration column 26/600 Superdex 200 (GE) in 50 mM Tris-HCl, pH 8.0, 250 mM NaCl, 15% Glycerol, 5 mM BME. The protein was aliquoted and flash-frozen in liquid Nitrogen.

[1] = system: BaF3-FL KIT D816V or BaF3-FL KIT V560G/D816V cell line; test: Cell-based assays of c-Kit mutant kinase activity (cell growth, ATPlite); settings: at least one of the c-kit cell assays of Example 26
Summary of the method: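 IC50 derived from ATP-content luminescence (ATPlite) after three-day compound exposure at 37° C., 5% CO2. Cells: BaF3 rendered growth-dependent on full-length human KIT D816V or V560G/D816V, 1×10^4 per well, RPMI plus 10% FBS; 8 points, 1:3 steps, maximum 10 μM final, 0.2% DMSO.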

Sequence of c-kit mutant D816V (P10721 other isoform, or with tags, fused parts or gaps D816V/del 694-753): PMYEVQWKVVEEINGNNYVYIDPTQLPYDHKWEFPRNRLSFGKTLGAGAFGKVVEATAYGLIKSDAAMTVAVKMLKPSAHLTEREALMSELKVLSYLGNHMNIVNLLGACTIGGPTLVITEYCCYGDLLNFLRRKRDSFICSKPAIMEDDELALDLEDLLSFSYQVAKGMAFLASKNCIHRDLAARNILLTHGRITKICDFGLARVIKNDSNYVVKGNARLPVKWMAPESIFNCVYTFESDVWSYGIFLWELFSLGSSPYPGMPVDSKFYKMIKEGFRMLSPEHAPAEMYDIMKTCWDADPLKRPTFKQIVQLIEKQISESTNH

Compound	IC50 (c-kit mutant D816V)	IC50 [1]
Cc1n[nH]c(C(=O)Nc2cnc3[nH]c(-c4ccccc4)nc3c2)c1C [P-2145, 3,4-dimethyl-N-(2-phenyl-3H-imidazo[4,5-b]pyridin-6-yl)-1H-pyrazole-5-carboxamide]	0.0001 to 1 µM	< 10000 nM
Cc1n[nH]c(C(=O)Nc2cnc3[nH]c(-c4cnc(C5CC5)nc4)cc3c2)c1C [P-2155, N-[2-(2-cyclopropylpyrimidin-5-yl)-1H-pyrrolo[2,3-b]pyridin-5-yl]-3,4-dimethyl-1H-pyrazole-5-carboxamide]	0.0001 to 1 µM	< 10000 nM
Cc1n[nH]c(C(=O)Nc2cnc3[nH]c(-c4ccccc4)nc3c2)c1Cl [P-2150, 4-chloro-3-methyl-N-(2-phenyl-3H-imidazo[4,5-b]pyridin-6-yl)-1H-pyrazole-5-carboxamide]	0.0001 to 1 µM	< 10000 nM
CCOc1ncc(-c2cc3cc(NC(=O)c4[nH]nc(C)c4C)cnc3[nH]2)cn1 [P-2153, N-[2-(2-ethoxypyrimidin-5-yl)-1H-pyrrolo[2,3-b]pyridin-5-yl]-3,4-dimethyl-1H-pyrazole-5-carboxamide]	0.0001 to 1 µM	< 10000 nM
COc1ccc(-c2cc3cc(NC(=O)c4[nH]nc(C)c4C)cnc3[nH]2)c(C)n1 [P-2169, N-[2-(6-methoxy-2-methyl-3-pyridyl)-1H-pyrrolo[2,3-b]pyridin-5-yl]-3,4-dimethyl-1H-pyrazole-5-carboxamide]	0.0001 to 1 µM	< 10000 nM
Cc1cc(C(=O)Nc2cnc3[nH]c(C#CCF)cc3c2)[nH]n1 [P-2068, N-[2-(3-fluoroprop-1-ynyl)-1H-pyrrolo[2,3-b]pyridin-5-yl]-3-methyl-1H-pyrazole-5-carboxamide]	1 to 10 µM	< 10000 nM
Cc1cc(C#N)ccc1-c1cc2cc(NC(=O)c3[nH]nc(C)c3C)cnc2[nH]1 [P-2161, N-[2-(4-cyano-2-methyl-phenyl)-1H-pyrrolo[2,3-b]pyridin-5-yl]-3,4-dimethyl-1H-pyrazole-5-carboxamide]	0.0001 to 1 µM	< 10000 nM
Cc1n[nH]c(C(=O)Nc2cnc3[nH]c(-c4ccccc4F)nc3c2)c1C [P-2152, N-[2-(2-fluorophenyl)-3H-imidazo[4,5-b]pyridin-6-yl]-3,4-dimethyl-1H-pyrazole-5-carboxamide]	0.0001 to 1 µM	< 10000 nM
Cc1nc(F)ccc1-c1cc2cc(NC(=O)c3[nH]nc(C)c3C)cnc2[nH]1 [P-2283, N-[2-(6-fluoro-2-methyl-3-pyridyl)-1H-pyrrolo[2,3-b]pyridin-5-yl]-3,4-dimethyl-1H-pyrazole-5-carboxamide]	0.0001 to 1 µM	< 10000 nM
COc1ccc(Cl)c(-c2cc3cc(NC(=O)c4[nH]nc(C)c4C)cnc3[nH]2)c1 [P-2077, N-[2-(2-chloro-5-methoxy-phenyl)-1H-pyrrolo[2,3-b]pyridin-5-yl]-3,4-dimethyl-1H-pyrazole-5-carboxamide]	1 to 10 µM	< 10000 nM
CCc1cc(C(=O)Nc2cnc3[nH]c(-c4ccc(F)cc4)cc3c2)[nH]n1 [P-2159, 3-ethyl-N-[2-(4-fluorophenyl)-1H-pyrrolo[2,3-b]pyridin-5-yl]-1H-pyrazole-5-carboxamide]	0.0001 to 1 µM	< 10000 nM
Cc1n[nH]c(C(=O)Nc2cnc3[nH]nc(-c4ccc(F)cc4)c3c2)c1C [P-2041, N-(3-(4-fluorophenyl)-1H-pyrazolo[3,4-b]pyridin-5-yl)-3,4-dimethyl-1H-pyrazole-5-carboxamide]	0.0001 to 1 µM	< 10000 nM
Cc1cc2ncc(NC(=O)c3n[nH]c(C)c3C)cn2n1 [P-2114, 4,5-dimethyl-N-(2-methylpyrazolo[1,5-a]pyrimidin-6-yl)-1H-pyrazole-3-carboxamide]	1 to 10 µM	< 10000 nM
Cc1n[nH]c(C(=O)Nc2cnc3[nH]c(-c4cnc(NC5CC5)nc4)cc3c2)c1C [P-2157, N-[2-[2-(cyclopropylamino)pyrimidin-5-yl]-1H-pyrrolo[2,3-b]pyridin-5-yl]-3,4-dimethyl-1H-pyrazole-5-carboxamide]	0.0001 to 1 µM	< 10000 nM
O=C(Nc1cnc2[nH]c(I)cc2c1)c1cccc2n[nH]cc12 [P-2288, N-(2-iodo-1H-pyrrolo[2,3-b]pyridin-5-yl)-2H-indazole-4-carboxamide]	1 to 10 µM	< 10000 nM
Cc1c(C(F)F)n[nH]c1C(=O)Nc1cnc2[nH]c(-c3ccc(F)cc3)cc2c1 [P-2287, 3-(difluoromethyl)-N-[2-(4-fluorophenyl)-1H-pyrrolo[2,3-b]pyridin-5-yl]-4-methyl-1H-pyrazole-5-carboxamide]	0.0001 to 1 µM	< 10000 nM
Cc1cc(C(=O)Nc2cnc3[nH]c(-c4ccccc4)nc3c2)[nH]n1 [P-2151, 3-methyl-N-(2-phenyl-3H-imidazo[4,5-b]pyridin-6-yl)-1H-pyrazole-5-carboxamide]	1 to 10 µM	< 10000 nM
Cc1n[nH]c(C(=O)Nc2cnc3[nH]c(C#CCF)cc3c2)c1C [P-2063, N-[2-(3-fluoroprop-1-ynyl)-1H-pyrrolo[2,3-b]pyridin-5-yl]-3,4-dimethyl-1H-pyrazole-5-carboxamide]	0.0001 to 1 µM	< 10000 nM
CNS(=O)(=O)c1cccc(-c2cc3cc(NC(=O)c4[nH]nc(C)c4C)cnc3[nH]2)c1 [P-2121, 3,4-dimethyl-N-[2-[3-(methylsulfamoyl)phenyl]-1H-pyrrolo[2,3-b]pyridin-5-yl]-1H-pyrazole-5-carboxamide]	0.0001 to 1 µM	< 10000 nM
Cc1n[nH]c(C(=O)Nc2cnc3[nH]c(-c4cccc(C(=O)NCC(C)C)c4)cc3c2)c1C [P-2276, N-[2-[3-(isobutylcarbamoyl)phenyl]-1H-pyrrolo[2,3-b]pyridin-5-yl]-3,4-dimethyl-1H-pyrazole-5-carboxamide]	0.0001 to 1 µM	< 10000 nM
COc1ccncc1-c1cc2cc(NC(=O)c3[nH]nc(C)c3C)cnc2[nH]1 [P-2185, N-[2-(4-methoxy-3-pyridyl)-1H-pyrrolo[2,3-b]pyridin-5-yl]-3,4-dimethyl-1H-pyrazole-5-carboxamide]	0.0001 to 1 µM	< 10000 nM
Cc1n[nH]c(C(=O)Nc2cnc3[nH]c(N4CCCC4)cc3c2)c1C [P-2115, 3,4-dimethyl-N-(2-pyrrolidin-1-yl-1H-pyrrolo[2,3-b]pyridin-5-yl)-1H-pyrazole-5-carboxamide]	1 to 10 µM	< 10000 nM
O=C(Nc1cnc2[nH]c(-c3ccc(F)cc3)cc2c1)c1cc(C(F)F)n[nH]1 [P-2172, 3-(difluoromethyl)-N-[2-(4-fluorophenyl)-1H-pyrrolo[2,3-b]pyridin-5-yl]-1H-pyrazole-5-carboxamide]	1 to 10 µM	< 10000 nM
N#CCc1cccc(C(=O)Nc2cnc3[nH]c(-c4ccc(F)cc4)cc3c2)c1 [P-2021, 3-(cyanomethyl)-N-[2-(4-fluorophenyl)-1H-pyrrolo[2,3-b]pyridin-5-yl]benzamide]	10 to 200 µM	–
NC(=O)c1cccc(NC(=O)c2cnc3[nH]c(-c4ccccc4)cc3c2)c1 [P-2003, N-(3-carbamoylphenyl)-2-phenyl-1H-pyrrolo[2,3-b]pyridine-5-carboxamide]	10 to 200 µM	–
O=C(Nc1cnc2[nH]c(-c3ccccc3)cc2c1)c1ccncn1 [P-2011, N-(2-phenyl-1H-pyrrolo[2,3-b]pyridin-5-yl)pyrimidine-4-carboxamide]	10 to 200 µM	–
Cc1onc(C(=O)Nc2cnc3[nH]c(-c4ccccc4)cc3c2)c1C [P-2017, 4,5-dimethyl-N-(2-phenyl-1H-pyrrolo[2,3-b]pyridin-5-yl)isoxazole-3-carboxamide]	10 to 200 µM	–
